Counter-ions that a name gives are not always drawn.
Key:
Assay type in all cases: biochemical
[1] = biological target: T1, Cathepsin H (Calbiochem, 219388) (Homo sapiens, UniProt P09668); assay: Selectivity study: cathepsin H (L-Arg-pNA); details: 1 hour at 40° C., read-out: Cathepsins (IC50, nM) H
T1 construct: purchased Calbiochem 219388
T1 sequence (P09668 98-335): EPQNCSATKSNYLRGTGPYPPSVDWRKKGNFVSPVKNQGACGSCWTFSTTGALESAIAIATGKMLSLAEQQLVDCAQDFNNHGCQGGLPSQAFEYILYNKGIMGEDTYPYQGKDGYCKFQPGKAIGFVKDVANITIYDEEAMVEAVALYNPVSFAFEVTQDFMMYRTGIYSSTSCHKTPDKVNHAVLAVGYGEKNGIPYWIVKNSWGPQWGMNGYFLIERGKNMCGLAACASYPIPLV
Description: (§1) Test 2: Selectivity Study
(§2) Selectivity study for the compounds of the present invention was performed using cathepsin C (Sigma, C8511), cathepsin G (Calbiochem, 219373), cathepsin H (Calbiochem, 219388), cathepsin L (Calbiochem, 219402), and cathepsin S (Eur. J. Biochem. 236, 558 (1996) as enzyme sources.
Cathepsin H (Calbiochem, 219388) was dissolved in 20 mM NaOAc, 1 mM EDTA-2Na and 100 mM NaCl buffer (pH 4.6). All inhibitors were prepared dimethyl sulfoxide (DMSO). In vitro assays for cathepsin H were conducted with L-Arg-pNA (BACHEM, 1-1160) as a substrate. Samples were pre-incubated for 5 minutes at 40° C. Reaction was initiated by the addition of enzyme to samples, which were then incubated for 1 hour at 40° C. The absorbance of p-nitroaniline released was monitored at 405 nm using spectrophotometer.
(§3) The concentrations of the test compounds, which inhibit 50% of cathepsin s C, G, H, L and S activity, are represented as IC50 in Table 2.

[2] = biological target: T2, Cathepsin C (Sigma, C8511) (Bos taurus, UniProt Q3ZCJ8); assay: Selectivity study: cathepsin C (Gly-Phe-pNA); details: 1 hour at 37° C., read-out: Cathepsins (IC50, nM) C
T2 construct: purchased Sigma C8511
Description: as §1, §2
(§4) Cathepsin C (Sigma, C8511) was dissolved in D.W. buffer (pH 5.5). All inhibitors were prepared in dimethyl sulfoxide (DMSO). In vitro assays for cathepsin C were conducted with Gly-Phe-pNA (Sigma, G-0142) as a substrate. Samples were pre-incubated for 10 minutes at 37° C. Reaction was initiated by the addition of enzyme to samples, which were then incubated for 1 hour at 37° C. The absorbance of p-nitroaniline released was monitored at 405 nm using spectrophotometer.
as §3

[3] = biological target: Recombinant human Cathepsin S (Homo sapiens, UniProt P25774); assay: Selectivity study: cathepsin S (Z-Val-Val-AMC); details: 30 minutes at 37° C., read-out: Cathepsins (IC50, nM) S
Description: as §1, §2
Recombinant human Cathepsin S (Eur. J. Biochem. 236, 558 (1996) was dissolved in 0.1 M NaOAc 1 mM EDTA-4Na buffer (pH 5.5). All inhibitors were prepared in dimethyl sulfoxide (DMSO). In vitro assays for cathepsin S were conducted with Z-Val-Val-AMC (BACHEM, 1-1160) as a substrate. Samples were pre-incubated for 10 minutes at 4° C. Reaction was initiated by the addition of enzyme to samples, which were then incubated for 30 minutes at 37° C. The florescence of AMC (7-amino-4-methylcoumarin) released was monitored at 465 nm (excitation wavelength 360 nm), using fluorescence spectrophotometer.
as §3

[4] = biological target: T3, Cathepsin L (Calbiochem, 219402) (Homo sapiens, UniProt P07711); assay: Selectivity study: cathepsin L (Z-Phe-Arg-AMC); details: 1 hour at 25° C., read-out: Cathepsins (IC50, nM) L
T3 construct: purchased Calbiochem 219402
Description: as §1, §2
Cathepsin L (Calbiochem, 219402) was dissolved in 50 mM NaOAc buffer (pH 5.0). All inhibitors were prepared in dimethyl sulfoxide (DMSO). […] Samples were pre-incubated for 5 minutes at 25° C. Reaction was initiated by the addition of enzyme to samples, which were then incubated for 1 hour at 25° C. The fluorescence of AMC (7-amino-4-methylcoumarin) was monitored at 460 nm (excitation wavelength 360 nm), using fluorescence spectrophotometer.
as §3

[5] = biological target: T4, Cathepsin G (Calbiochem, 219373) (Homo sapiens, UniProt P08311); assay: Selectivity study: cathepsin G (Suc-Ala-Ala-Pro-Phe-pNA); details: 1 hour at 25° C., read-out: Cathepsins (IC50, nM) G
T4 construct: purchased Calbiochem 219373
T4 sequence (P08311 21-244): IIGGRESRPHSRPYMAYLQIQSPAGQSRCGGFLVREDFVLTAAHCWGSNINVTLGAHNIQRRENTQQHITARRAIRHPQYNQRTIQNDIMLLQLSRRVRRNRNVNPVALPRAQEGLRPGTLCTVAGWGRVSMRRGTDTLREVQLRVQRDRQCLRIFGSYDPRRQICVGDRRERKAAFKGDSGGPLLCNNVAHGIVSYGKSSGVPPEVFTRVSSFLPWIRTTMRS
Description: as §1, §2
as §4, with “Cathepsin G (Calbiochem, 219373)” for “Cathepsin C (Sigma, C8511)”, “in 50 mM NaOAc and 150 mM NaCl” for “in D.W.”, “cathepsin G” for “cathepsin C”, “with Suc-Ala-Ala-Pro-Phe-pNA (Calbiochem, 219407)” for “with Gly-Phe-pNA (Sigma, G-0142)”, “at 25°” for “at 37°”
as §3

[6] = biological target: T5, Recombinant human cathepsin K (Homo sapiens, UniProt P43235); assay: Inhibition of cathepsin K activity (Z-Phe-Arg-AMC fluorescence assay); details: 25 uM Z-Phe-Arg-AMC, pH 5.5, 1 hour at 37° C.
T5 construct: made in house
T5 sequence (P43235 115-329): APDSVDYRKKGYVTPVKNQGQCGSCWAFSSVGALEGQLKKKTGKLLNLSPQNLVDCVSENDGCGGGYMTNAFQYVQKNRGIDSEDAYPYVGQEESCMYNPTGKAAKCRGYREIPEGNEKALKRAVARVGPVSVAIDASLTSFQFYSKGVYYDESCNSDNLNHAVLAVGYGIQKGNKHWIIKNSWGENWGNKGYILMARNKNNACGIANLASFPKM
Description: Test 1: Inhibition of Cathepsin K Activity
Recombinant human cathepsin K was prepared in accordance with Biol, Pharm. Bull, 19(8), 1026-1031 (1996) and J. Biol. Chem. 271, 2126-2132 (1996). Stock solutions of 2.5 mM Z-Phe-Arg-AMC (BACHEM, 1-1160) and all inhibitors were prepared in dimethyl sulfoxide. In vitro assays for cathepsin K were conducted with 25 uM Z-Phe-Arg-AMC as a substrate at pH 5.5 in 100 mM Na acetate buffer containing 20 mM cysteine and 5 mM EDTA in the presence of 2% final concentration of DMSO. Reaction was initiated by the addition of enzyme to samples, which were then incubated for 1 hour at 37° C. The fluorescence was monitored at 460 nm (excitation wavelength 360 nm) using fluorescence plate reader.
The concentrations of the test compounds, which inhibit 50% of cathepsin K activity, are represented as IC50 in Table 1.

T3 sequence (P07711 114-333): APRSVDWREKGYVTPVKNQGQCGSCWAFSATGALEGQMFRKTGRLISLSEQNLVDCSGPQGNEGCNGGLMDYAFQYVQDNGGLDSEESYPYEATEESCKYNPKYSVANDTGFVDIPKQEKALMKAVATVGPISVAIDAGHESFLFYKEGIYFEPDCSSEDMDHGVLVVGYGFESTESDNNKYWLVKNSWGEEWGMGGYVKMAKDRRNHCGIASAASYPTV
Recombinant human Cathepsin S, sequence (P25774 115-331): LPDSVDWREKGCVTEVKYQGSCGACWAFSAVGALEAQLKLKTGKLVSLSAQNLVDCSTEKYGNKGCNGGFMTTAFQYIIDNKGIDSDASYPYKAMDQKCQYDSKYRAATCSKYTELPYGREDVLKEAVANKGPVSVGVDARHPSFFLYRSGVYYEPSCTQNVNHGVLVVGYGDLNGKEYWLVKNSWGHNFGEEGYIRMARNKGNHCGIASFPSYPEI
T2 sequence (Q3ZCJ8 25-463): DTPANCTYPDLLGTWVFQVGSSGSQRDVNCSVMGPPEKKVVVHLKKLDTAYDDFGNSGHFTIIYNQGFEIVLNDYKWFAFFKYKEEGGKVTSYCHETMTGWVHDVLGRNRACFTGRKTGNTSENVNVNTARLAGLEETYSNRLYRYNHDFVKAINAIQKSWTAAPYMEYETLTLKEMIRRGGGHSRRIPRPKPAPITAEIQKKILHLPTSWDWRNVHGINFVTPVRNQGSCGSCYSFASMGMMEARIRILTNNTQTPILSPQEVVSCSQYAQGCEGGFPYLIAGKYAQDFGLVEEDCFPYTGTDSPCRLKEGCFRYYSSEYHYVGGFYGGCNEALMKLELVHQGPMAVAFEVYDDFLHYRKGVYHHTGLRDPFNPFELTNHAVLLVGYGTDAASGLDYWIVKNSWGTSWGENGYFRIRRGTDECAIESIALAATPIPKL

| SMILES | IC50 [6] [nM] | other results |
| --- | --- | --- |
| O=C(NC1(C(=O)NC2CCN(c3ccccc3-n3cccc3)CC2=O)CCCCC1)c1cc2ccccc2o1 (centres unmarked) [Example 60, 4-[N-[1-[N-(benzofuran-2-ylcarbonyl)amino]cyclohexanecarbonyl]amino]-1-[2-(pyrrol-1-yl)phenyl]piperidin-3-one] |  | IC50 [1]: > 1000 nM; IC50 [2]: > 1000 nM; IC50 [3]: > 150 nM; IC50 [4]: 103 nM; IC50 [5]: > 1000 nM |
| CS(=O)(=O)c1ccccc1N1CCC(NC(=O)C2(NC(=O)c3ccc(C(F)(F)F)cc3)CCCCC2)C(=O)C1 (centres unmarked) [Example 154, 4-[N-[1-[N-(4-trifluoromethylbenzoyl)amino]cyclohexanecarbonyl]amino]-1-(2-methanesulfonylphenyl)piperidin-3-one] | 1.37 |  |
| O=C(NC1(C(=O)NC2CCN(c3ccc(Cl)cc3F)CC2=O)CCCCC1)c1cc2ccccc2s1 (centres unmarked) [Example 131, 4-[N-[1-[N-(benzothiophen-2-ylcarbonyl)amino]cyclohexanecarbonyl]amino]-1-(4-chloro-2-fluoro-phenyl)piperidin-3-one] | 4.11 |  |
| CCOC(=O)Nc1ccccc1N1CCC(NC(=O)C2(NC(=O)c3cc4ccccc4o3)CCCCC2)C(=O)C1 (centres unmarked) [Example 48, 4-[N-[1-[N-(benzofuran-2-ylcarbonyl)amino]cyclohexanecarbonyl]amino]-1-[2-[N-(ethoxycarbonyl)amino]phenyl]piperidin-3-one] | 0.67 |  |
| CCS(=O)(=O)c1ccccc1N1CCC(NC(=O)C2(NC(=O)c3cc(C)on3)CCCCC2)C(=O)C1 (centres unmarked) [Example 107, 4-[N-[1-[N-(5-methyl-isoxazol-3-ylcarbonyl)amino]cyclohexanecarbonyl]amino]-1-(2-ethanesulfonylphenyl)piperidin-3-one] | 8.07 |  |
| CC(C)C(=O)Nc1ccccc1N1CCC(NC(=O)C2(NC(=O)c3cc4ccccc4o3)CCCCC2)C(=O)C1 (centres unmarked) [Example 51, 4-[N-[1-[N-(benzofuran-2-ylcarbonyl)amino]cyclohexanecarbonyl]amino]-1-[2-[N-(isobutyryl)amino]phenyl]piperidin-3-one] | 4.11 |  |
| CC1(C)CN(c2cc(F)ccc2N2CCC(NC(=O)C3(NC(=O)c4ccco4)CCCCC3)C(=O)C2)C1=O (centres unmarked) [Example 92, 4-[N-[1-[N-(furan-2-ylcarbonyl)amino]cyclohexanecarbonyl]amino]-1-[4-fluoro-2-(3,3-dimethylazetidin-2-one-1-yl)phenyl]piperidin-3-one] | 1.45 |  |
| O=C(NC1(C(=O)NC2CCN(c3ccccc3N3CCCCC3=O)CC2=O)CCCCC1)c1cc2ccccc2o1 (centres unmarked) [Example 45, 4-[N-[1-[N-(benzofuran-2-ylcarbonyl)amino]cyclohexanecarbonyl]amino]-1-[2-(piperidin-2-one-1-yl)phenyl]piperidin-3-one] | 6.8 |  |
| CS(=O)(=O)c1ccccc1N1CCC(NC(=O)C2(NC(=O)c3ccc(OCCN4CCCC4)cc3)CCCCC2)C(=O)C1 (centres unmarked) [Example 156, 4-[N-[1-[N-(4-(2-pyrrolidinethoxy)benzoyl)amino]cyclohexanecarbonyl]amino]-1-(2-methanesulfonylphenyl)piperidin-3-one] | 1.9 |  |
| CC(=O)c1ccccc1N1CCC(NC(=O)C2(NC(=O)c3cc4ccccc4o3)CCCCC2)C(=O)C1 (centres unmarked) [Example 6, 4-[N-[1-[N-(benzofuran-2-ylcarbonyl)amino]cyclohexanecarbonyl]amino]-1-(2-acetylphenyl)piperidin-3-one] | 2.69 |  |
| Cc1occc1C(=O)NC1(C(=O)NC2CCN(c3ccccc3S(C)(=O)=O)CC2=O)CCCCC1 (centres unmarked) [Example 122, 4-[N-[1-[N-(2-methyl-furan-3-ylcarbonyl)amino]cyclohexanecarbonyl]amino]-1-(2-methanesulfonylphenyl)piperidin-3-one] | 3.87 |  |
| O=C(NC1(C(=O)NC2CCN(c3cc(C(F)(F)F)ccc3Cl)CC2=O)CCCCC1)c1cc2ccccc2s1 (centres unmarked) [Example 130, 4-[N-[1-[N-(benzothiophen-2-ylcarbonyl)amino]cyclohexanecarbonyl]amino]-1-(2-chloro-5-trifluoromethylphenyl)piperidin-3-one] | 1.2 |  |
| CS(=O)(=O)c1ccccc1N1CCC(NC(=O)C2(NC(=O)c3ccc(-c4ccccc4)cc3)CCCCC2)C(=O)C1 (centres unmarked) [Example 153, 4-[N-[1-[N-(4-biphenylcarbonyl)amino]cyclohexanecarbonyl]amino]-1-(2-methanesulfonylphenyl)piperidin-3-one] | 0.36 |  |
| O=C(NC1(C(=O)NC2CCN(c3ccccc3-c3nnn[nH]3)CC2=O)CCCCC1)c1cc2ccccc2o1 (centres unmarked) [Example 67, 4-[N-[1-[N-(benzofuran-2-ylcarbonyl)amino]cyclohexanecarbonyl]amino]-1-[2-(1H-tetrazol-5-yl)phenyl]piperidin-3-one] | 4.77 |  |
| O=C(NC1(C(=O)NC2CCN(c3ccc([N+](=O)[O-])cc3)CC2=O)CCCCC1)c1cc2ccccc2o1 (centres unmarked) [Example 16, 4-[N-[1-[N-(benzofuran-2-ylcarbonyl)amino]cyclohexanecarbonyl]amino]-1-(4-nitrophenyl)piperidin-3-one] | 10.8 |  |
| CS(=O)(=O)c1ccccc1N1CCC(NC(=O)C2(NC(=O)c3cc4cc(OCCN5CCCCC5)ccc4o3)CCCCC2)C(=O)C1 (centres unmarked) [Example 166, 4-[N-[1-[N-(5-(2-piperidinethoxy)benzofuran-2-ylcarbonyl)amino]cyclohexanecarbonyl]amino]-1-(2-methanesulfonylphenyl)piperidin-3-one hydrochloride] | 0.71 |  |
